Laboratory results taken from paper PMC7789826 (Journal of Molecular Structure, 2021).

Molecular target: voltage-gated potassium channel Kv1.3 (Homo sapiens, UniProt P22001)
Test: whole-cell patch clamp, voltage ramp, endogenous Kv1.[…] current in Jurkat T cells
Type: cell-based

Sequence of voltage-gated potassium channel Kv1.3 (P22001 whole entry): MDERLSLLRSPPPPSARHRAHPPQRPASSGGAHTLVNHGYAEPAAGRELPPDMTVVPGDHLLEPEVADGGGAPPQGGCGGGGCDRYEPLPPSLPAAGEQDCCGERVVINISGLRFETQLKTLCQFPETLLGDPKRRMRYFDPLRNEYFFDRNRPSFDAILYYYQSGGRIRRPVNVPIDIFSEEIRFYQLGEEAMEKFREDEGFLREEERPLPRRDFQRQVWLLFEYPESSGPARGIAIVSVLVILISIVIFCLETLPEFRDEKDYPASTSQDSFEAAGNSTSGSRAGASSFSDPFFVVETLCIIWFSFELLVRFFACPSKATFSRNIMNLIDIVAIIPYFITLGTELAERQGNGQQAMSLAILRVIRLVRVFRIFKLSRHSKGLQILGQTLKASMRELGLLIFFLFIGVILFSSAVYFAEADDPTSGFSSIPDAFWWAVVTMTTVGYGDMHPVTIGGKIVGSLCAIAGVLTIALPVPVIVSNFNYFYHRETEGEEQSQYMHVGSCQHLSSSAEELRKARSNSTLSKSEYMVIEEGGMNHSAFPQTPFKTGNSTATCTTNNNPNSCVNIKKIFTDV

Compound	EC50
CC[C@H](C)C(=O)O[C@H]1CCC=C2C=C[C@H](C)[C@H](CC[C@@H]3C[C@@H](O)CC(=O)O3)[C@H]21 [mevastatin]	6.04 µM
CCC(C)(C)C(=O)O[C@H]1C[C@@H](C)C=C2C=C[C@H](C)[C@H](CC[C@@H]3C[C@@H](O)CC(=O)O3)[C@H]21 [simvastatin]	4.85 µM
